# Tests used:
# HIV-2 (ROD) = test: inhibition of virus-induced cytopathicity in MT-4 cells, HIV-2 (ROD); format: cell-based; settings: Human immunodeficiency virus 2, MT4, 120 h, read-out: EC50 HIV-2 ROD
# HIV-1 NL43/DS5000 = test: microbe, parasite or virus in culture; format: cell-based
# [1] = tested on: HIV-1 (NDK, NL4.3 and L1), HIV-2 (ROD and EHO) and SIV (MAC251); test: antiviral activity against several HIV and SIV strains; format: cell-based; settings: range over HIV-1 (NDK, NL4.3 and L1)
# HIV-1 = test: combined inhibitory effect on HIV-1-induced cytopathic effect, isobologram method; format: cell-based; settings: combination with nevirapine, MT-4 cells, FIG. 4
# Procedure: The antiviral effect of compound H was tested in combination with the nucleoside reverse transcriptase inhibitor zidovudine, the non-nucleoside reverse transcriptase inhibitor nevirapine and the protease inhibitor nelfinavir.
# The combined inhibitory effect on HIV-1-induced cytopathic effect was evaluated by the isobologram method, as previously described by Elion et al. in J. Biol. Chem. (1954) 208:477-488 and by Baba et al. in Antimicrob. Agents Chemother. (1984) 25:515-517.
# EC50, as defined herein before, was used for calculating the fractional inhibitory concentration (hereinafter referred as FIC). When the minimum FIC index corresponding to the FIC of combined compounds (e.g., FICx+FICy) is equal to 1.0, the combination is said to be additive; when it is beween 1.0 and 0.5, the combination is by definition said to be subsynergistic, and when it is <0.5, the combination is by definition said to be synergistic. When the minimum FIC index is between 1.0 and 2.0, the combination is said to be subantagonistic and, when it is >2.0, the combination is defined as antagonistic.
# integrase = molecular target: T1, integrase (Human immunodeficiency virus type 1 group M subtype B, UniProt P04585); test: kinetic cleavage assay, conversion of initial stable complex into cleaved product; format: biochemical, HIV-1; settings: in the presence of 50 μM compound, added after preincubation with dextran sulfate
# T1 construct: encoding HIV-1 IN (strain HTLV III); made in house; host or cells: E. coli PC1 (BL21(DE3)(pLysS) ΔendA::TcR)
# Procedure: When dextran sulfate with a molecular weight of 5,000 was added at a final concentration of 0.3 μM, further binding of integrase to the oligonucleotide was blocked. At several periods of time, 5 μl aliquots were taken and the reaction was stopped using 5 μl formamide loading buffer (having the same composition as above). The rate constant for the conversion of ISC into the cleaved product can be calculated using the formula: A-Be^−kt. In order to examine the inhibitory effect of compound H on 3′-processing, we repeated the same experiment in the presence of 50 μM compound (added after preincubation, together with dextran sulfate) and compared the rate constants: In the absence of compound H, it was calculated at 0.152±0.038 min^−1 in its presence at 0.147±0.025 min^−1. This quite similar value rules out that compound H directly affects the catalysis of 3′-processing.
structure (smiles),measurement,setting,value
"O=[N+]([O-])c1ccc(C2c3c(O)nc(S)nc3Oc3nc(S)nc(O)c32)cc1 [compound H, 5-(4-nitrophenyl)-2,8-dithiol-4,6-dihydroxy-5H-pyrano[2,3-d:6,5-d′]dipyrimidine]",EC50,HIV-2 (ROD),30 ± 6.2 µM
same,EC50,"HIV-1 NL43/DS5000; Human immunodeficiency virus 1, NL43",19.4 ± 1.4 µM
same,fold increase in EC50,HIV-1 NL43/DS5000; NL43/DS5000 versus wild type strain NL4.3,1.3
same,activity against HIV-1 strain resistant to dextran sulfate,HIV-1 NL43/DS5000; in words,active
same,EC50,[1],5.5 to 30 µM
same,added values FICnevirapine+FICV-165,HIV-1,below 0.5
same,rate constant for the conversion of ISC into the cleaved product,integrase,0.147 ± 0.025 min⁻¹

# — patent publication US20030187003A1, “Pharmaceutical compositions and method for the treatment of retroviral infections” (priority 2000, published 2003)
